Measured values: ChEMBL document CHEMBL1201862, “PubChem BioAssay data set” (2004)
Activity calls are given as the source filed them. Square brackets hold non-standard residues; d marks the D form. Peptide text beside a SMILES is read from it. * marks the point of attachment. Hyp = O=C(O)[CH]1C[CH](O)CN1; Cbz = O=C(OCc1ccccc1)*; OBn = c1ccc(CO*)cc1

Key:
Caspase-3 = molecular target: T1, Caspase-3 (Homo sapiens, UniProt P42574); type: functional;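 also: Dose-response selectivity test against caspase-3 for candidate inhibitors of sentrin-specific proteases (SENPs)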
T1 sequence (P42574 whole entry): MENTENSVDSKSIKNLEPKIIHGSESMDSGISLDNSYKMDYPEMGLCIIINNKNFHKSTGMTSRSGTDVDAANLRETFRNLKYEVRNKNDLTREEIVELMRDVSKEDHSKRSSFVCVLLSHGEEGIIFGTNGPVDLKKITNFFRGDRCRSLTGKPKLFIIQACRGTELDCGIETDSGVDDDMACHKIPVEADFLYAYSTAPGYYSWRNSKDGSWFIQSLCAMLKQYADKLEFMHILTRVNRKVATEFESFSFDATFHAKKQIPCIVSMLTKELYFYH

[1] = molecular target: T2, Sentrin-specific protease 7 (Homo sapiens, UniProt Q9BQF6); type: functional;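 also: Luminescence-based dose-response confirmation of ultra-high-throughput screening hits, measuring inhibition of SENP7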
T2 sequence (Q9BQF6 whole entry): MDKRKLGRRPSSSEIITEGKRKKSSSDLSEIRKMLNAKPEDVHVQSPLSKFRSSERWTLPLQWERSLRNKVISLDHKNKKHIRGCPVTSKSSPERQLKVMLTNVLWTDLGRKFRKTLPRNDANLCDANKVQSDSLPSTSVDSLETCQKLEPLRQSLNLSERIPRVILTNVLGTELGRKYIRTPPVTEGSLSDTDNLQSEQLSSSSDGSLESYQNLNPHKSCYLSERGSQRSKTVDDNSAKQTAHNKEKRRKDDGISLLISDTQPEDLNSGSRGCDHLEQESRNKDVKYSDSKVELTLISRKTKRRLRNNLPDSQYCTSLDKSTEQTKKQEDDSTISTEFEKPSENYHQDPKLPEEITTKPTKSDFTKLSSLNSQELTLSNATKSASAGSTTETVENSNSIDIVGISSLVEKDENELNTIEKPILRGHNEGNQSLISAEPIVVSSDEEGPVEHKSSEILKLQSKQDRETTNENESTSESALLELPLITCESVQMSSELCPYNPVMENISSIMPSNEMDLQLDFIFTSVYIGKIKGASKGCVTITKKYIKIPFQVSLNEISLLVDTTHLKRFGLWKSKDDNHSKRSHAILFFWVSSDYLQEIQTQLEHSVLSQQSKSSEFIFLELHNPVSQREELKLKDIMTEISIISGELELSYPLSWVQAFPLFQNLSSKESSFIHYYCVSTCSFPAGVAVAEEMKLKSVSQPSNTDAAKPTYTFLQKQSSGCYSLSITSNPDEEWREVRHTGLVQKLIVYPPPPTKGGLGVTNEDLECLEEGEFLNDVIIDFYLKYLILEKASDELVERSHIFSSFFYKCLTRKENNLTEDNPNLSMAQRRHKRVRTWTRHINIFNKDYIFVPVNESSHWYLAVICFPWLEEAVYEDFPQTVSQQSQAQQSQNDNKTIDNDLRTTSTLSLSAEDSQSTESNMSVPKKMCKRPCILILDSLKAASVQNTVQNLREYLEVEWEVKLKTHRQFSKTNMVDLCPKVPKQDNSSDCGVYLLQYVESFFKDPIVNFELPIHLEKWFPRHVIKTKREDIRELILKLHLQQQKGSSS

[2] = molecular target: T3, Sentrin-specific protease 6 (Homo sapiens, UniProt Q9GZR1); type: functional;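 also: Luminescence-based dose-response confirmatory assay of SENP6 inhibition, following up an ultra-high-throughput screen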
T3 sequence (Q9GZR1 whole entry): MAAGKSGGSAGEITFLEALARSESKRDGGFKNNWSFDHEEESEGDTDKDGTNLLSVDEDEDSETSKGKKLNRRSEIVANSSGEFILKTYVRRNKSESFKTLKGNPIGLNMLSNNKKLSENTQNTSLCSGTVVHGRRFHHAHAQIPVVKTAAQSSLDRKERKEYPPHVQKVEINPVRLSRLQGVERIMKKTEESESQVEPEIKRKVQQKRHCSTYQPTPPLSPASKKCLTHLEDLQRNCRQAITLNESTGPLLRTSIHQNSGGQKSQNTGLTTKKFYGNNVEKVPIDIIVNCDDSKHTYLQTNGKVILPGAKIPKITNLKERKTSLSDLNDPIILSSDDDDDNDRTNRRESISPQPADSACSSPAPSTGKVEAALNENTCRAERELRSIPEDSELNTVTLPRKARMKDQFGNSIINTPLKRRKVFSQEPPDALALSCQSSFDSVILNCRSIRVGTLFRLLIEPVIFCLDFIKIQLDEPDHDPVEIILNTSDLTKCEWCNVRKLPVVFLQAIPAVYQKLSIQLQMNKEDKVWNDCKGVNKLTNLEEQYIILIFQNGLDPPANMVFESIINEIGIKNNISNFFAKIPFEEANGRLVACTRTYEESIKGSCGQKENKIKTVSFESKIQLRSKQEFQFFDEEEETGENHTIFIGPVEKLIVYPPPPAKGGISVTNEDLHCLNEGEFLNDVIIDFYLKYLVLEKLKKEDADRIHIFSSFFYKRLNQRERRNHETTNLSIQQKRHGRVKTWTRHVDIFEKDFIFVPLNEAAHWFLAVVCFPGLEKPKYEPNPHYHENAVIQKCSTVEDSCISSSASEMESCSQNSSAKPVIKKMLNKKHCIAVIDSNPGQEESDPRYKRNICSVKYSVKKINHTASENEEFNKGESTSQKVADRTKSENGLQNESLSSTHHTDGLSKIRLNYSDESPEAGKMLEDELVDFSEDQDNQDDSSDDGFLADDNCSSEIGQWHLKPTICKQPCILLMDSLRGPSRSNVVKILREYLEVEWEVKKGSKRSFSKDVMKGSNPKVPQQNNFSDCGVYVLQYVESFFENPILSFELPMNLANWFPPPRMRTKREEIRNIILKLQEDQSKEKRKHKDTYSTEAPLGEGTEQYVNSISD

[3] = molecular target: T4, Sentrin-specific protease 8 (Homo sapiens, UniProt Q96LD8); type: functional;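 also: luminescence read-out of SENP8 inhibition, dose-response confirmation following an ultra-high-throughput screen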
T4 sequence (Q96LD8 whole entry): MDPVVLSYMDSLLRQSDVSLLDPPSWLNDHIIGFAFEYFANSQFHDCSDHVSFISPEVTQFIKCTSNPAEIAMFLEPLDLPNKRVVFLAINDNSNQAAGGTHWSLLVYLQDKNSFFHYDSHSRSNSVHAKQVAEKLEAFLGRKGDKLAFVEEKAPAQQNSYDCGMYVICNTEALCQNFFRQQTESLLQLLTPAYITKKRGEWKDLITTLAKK

[4] = system: Streptococcus sp. 'group A'; experiment: Streptococcus pyogenes SK(-)GAS viability under kanamycin – luminescence, BacTiterGlo, confirmation, counter-screen for streptokinase expression inhibitor project, dose response (AID 1900); type: functional, organism-based
BJ [5] = experiment: BJ-TERT fibroblast viability loss – cell-based, RAS-independent, luminescence, dose response (AID 1933); type: functional; conditions: Homo sapiens
Streptokinase A = molecular target: T5, Streptokinase A (Streptococcus pyogenes serotype M1, UniProt P10520); experiment: viability-normalized secreted streptokinase activity reduction – plasminogen activation absorbance, OD405, dose response (AID 1914); type: functional, Streptococcus pyogenes M1 GAS;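 also: secreted streptokinase activity via plasminogen activation per viability signal from cell pellet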
T5 sequence (P10520 whole entry): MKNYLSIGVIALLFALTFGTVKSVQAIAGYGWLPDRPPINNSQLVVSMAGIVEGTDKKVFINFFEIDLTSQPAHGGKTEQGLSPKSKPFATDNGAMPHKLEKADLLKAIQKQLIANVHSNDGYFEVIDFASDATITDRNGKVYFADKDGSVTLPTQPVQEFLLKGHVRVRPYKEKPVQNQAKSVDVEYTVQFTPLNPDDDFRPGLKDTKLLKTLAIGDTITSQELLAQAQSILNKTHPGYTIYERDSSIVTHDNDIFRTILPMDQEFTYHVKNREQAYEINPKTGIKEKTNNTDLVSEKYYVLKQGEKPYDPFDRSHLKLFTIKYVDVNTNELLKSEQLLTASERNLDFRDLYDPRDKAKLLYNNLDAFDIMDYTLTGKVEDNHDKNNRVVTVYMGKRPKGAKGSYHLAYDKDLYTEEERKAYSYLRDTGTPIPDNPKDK

BJ [6] = experiment: cells; type: functional, cell-based; conditions: Homo sapiens
Large T antigen = Large T antigen (Simian virus 40, UniProt P03070); type: functional, Betapolyomavirus macacae;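 also: Confirmatory-stage PubChem screen for compounds that inhibit SV40 T antigen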
Large T antigen, sequence (P03070 whole entry): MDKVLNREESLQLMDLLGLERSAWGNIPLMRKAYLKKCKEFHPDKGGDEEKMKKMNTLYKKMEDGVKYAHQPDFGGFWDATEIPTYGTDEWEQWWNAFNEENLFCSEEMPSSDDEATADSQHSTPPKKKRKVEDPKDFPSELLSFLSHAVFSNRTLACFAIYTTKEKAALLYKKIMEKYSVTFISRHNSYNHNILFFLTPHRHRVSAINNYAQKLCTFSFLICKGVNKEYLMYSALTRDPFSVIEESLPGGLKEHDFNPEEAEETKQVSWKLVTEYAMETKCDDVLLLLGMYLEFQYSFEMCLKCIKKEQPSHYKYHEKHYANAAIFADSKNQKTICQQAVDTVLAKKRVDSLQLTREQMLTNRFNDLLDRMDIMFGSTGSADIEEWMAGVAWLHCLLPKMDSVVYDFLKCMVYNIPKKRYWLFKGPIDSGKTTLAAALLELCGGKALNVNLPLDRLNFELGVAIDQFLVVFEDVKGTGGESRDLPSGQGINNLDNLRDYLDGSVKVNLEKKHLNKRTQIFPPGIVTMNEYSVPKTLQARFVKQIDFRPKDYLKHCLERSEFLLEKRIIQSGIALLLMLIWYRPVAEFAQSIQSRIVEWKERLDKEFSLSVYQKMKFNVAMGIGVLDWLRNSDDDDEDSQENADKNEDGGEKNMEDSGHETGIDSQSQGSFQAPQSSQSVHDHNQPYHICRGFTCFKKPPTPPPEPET

[7] = molecular target: Luciferin 4-monooxygenase (Photinus pyralis, UniProt P08659); experiment: inhibition of purified Photinus pyralis luciferase – biochemical, luminescence, dose response (AID 1891)
Luciferin 4-monooxygenase, sequence (P08659 whole entry): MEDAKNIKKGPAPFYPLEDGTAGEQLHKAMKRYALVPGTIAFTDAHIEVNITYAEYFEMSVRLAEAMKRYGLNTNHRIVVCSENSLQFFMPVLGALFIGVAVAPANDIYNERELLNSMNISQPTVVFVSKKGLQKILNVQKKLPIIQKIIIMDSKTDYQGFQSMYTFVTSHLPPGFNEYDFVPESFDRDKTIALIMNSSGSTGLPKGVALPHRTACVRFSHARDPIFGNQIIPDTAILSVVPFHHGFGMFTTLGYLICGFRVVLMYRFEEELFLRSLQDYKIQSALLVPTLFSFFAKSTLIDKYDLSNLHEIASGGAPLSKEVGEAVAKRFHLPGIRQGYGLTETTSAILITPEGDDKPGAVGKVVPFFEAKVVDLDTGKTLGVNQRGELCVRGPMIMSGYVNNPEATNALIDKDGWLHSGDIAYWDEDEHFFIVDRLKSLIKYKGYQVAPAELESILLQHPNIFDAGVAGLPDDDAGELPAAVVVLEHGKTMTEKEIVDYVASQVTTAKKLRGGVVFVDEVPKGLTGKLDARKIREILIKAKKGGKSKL

[8] = Luminescence Cell-Based Dose Confirmation HTS to Identify Inhibitors of Platelet Dense Granule Release. [Related pubchem assays: 1663 (Primary HTS), 1678 (Summary of Project)]; type: functional
BJ [9] = experiment: BJ-TERT-LT-ST fibroblast viability loss – cell-based, RAS-independent, luminescence, dose response (AID 1935); type: functional; conditions: Homo sapiens;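 also: BJ fibroblasts immortalized with TERT plus LT and ST oncogenes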
[10] = DRD fibroblast viability loss – cell-based, non-viral oncogenic, luminescence, dose response (AID 1934); type: functional; conditions: Homo sapiens
Streptococcus = experiment: GAS UMAA2166 growth inhibition – luminescence, BacTiterGlo, counter-screen for streptokinase expression inhibitor project, dose response (AID 1915); type: functional, organism-based;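 also: potency for reduction of bacterial viability or growth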
HEK293 = experiment: EBV LMP1 TES2 canonical NF-kB signalling blockers – cell-based, HEK293, luciferase, cherry-pick, dose response (AID 588343); type: functional; conditions: Homo sapiens
[11] = molecular target: T6, High affinity choline transporter 1 (Homo sapiens, UniProt Q9GZV3); experiment: human choline transporter blockers, potency – cell-based, 5-point CRC, membrane potential dye, dose response (AID 504840); type: functional
T6 sequence (Q9GZV3 whole entry): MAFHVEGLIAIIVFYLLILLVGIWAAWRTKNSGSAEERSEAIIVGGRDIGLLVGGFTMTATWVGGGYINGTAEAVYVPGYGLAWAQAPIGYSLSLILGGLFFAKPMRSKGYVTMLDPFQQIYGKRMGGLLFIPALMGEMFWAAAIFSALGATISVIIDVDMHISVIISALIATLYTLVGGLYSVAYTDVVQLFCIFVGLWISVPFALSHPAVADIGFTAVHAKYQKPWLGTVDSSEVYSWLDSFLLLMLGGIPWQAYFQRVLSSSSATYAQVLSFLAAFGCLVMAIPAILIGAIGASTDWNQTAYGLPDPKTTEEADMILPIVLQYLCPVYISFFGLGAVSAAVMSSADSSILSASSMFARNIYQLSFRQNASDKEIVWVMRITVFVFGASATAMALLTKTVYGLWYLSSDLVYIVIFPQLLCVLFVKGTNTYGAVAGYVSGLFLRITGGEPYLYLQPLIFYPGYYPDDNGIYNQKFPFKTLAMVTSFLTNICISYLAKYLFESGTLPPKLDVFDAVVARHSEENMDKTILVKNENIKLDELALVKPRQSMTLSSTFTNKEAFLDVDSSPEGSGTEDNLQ

Vero = experiment: viability of Vero cells under compound – cytotoxicity control for flavivirus capping enzyme inhibitors (AID 588742); type: functional; conditions: Chlorocebus sabaeus
BJ [12] = experiment: growth inhibition of engineered Ras-driven BJ cells – cell-based, alamar blue fluorescence, cherrypicked samples, dose response (AID 2631); type: functional; conditions: Homo sapiens;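 also: confirmatory dose-response assay in RAS-dependent BJ fibroblasts engineered with TERT, LT and ST, with cytotoxicity read by fluorescence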
Genome polyprotein = Genome polyprotein (dengue virus type 2, UniProt P29990); experiment: flavivirus cap methylation enzyme inhibition – biochemical, confirmation dose response, primary screen (AID 588689); type: functional
Genome polyprotein, sequence (P29990 2492-3391 limits assumed): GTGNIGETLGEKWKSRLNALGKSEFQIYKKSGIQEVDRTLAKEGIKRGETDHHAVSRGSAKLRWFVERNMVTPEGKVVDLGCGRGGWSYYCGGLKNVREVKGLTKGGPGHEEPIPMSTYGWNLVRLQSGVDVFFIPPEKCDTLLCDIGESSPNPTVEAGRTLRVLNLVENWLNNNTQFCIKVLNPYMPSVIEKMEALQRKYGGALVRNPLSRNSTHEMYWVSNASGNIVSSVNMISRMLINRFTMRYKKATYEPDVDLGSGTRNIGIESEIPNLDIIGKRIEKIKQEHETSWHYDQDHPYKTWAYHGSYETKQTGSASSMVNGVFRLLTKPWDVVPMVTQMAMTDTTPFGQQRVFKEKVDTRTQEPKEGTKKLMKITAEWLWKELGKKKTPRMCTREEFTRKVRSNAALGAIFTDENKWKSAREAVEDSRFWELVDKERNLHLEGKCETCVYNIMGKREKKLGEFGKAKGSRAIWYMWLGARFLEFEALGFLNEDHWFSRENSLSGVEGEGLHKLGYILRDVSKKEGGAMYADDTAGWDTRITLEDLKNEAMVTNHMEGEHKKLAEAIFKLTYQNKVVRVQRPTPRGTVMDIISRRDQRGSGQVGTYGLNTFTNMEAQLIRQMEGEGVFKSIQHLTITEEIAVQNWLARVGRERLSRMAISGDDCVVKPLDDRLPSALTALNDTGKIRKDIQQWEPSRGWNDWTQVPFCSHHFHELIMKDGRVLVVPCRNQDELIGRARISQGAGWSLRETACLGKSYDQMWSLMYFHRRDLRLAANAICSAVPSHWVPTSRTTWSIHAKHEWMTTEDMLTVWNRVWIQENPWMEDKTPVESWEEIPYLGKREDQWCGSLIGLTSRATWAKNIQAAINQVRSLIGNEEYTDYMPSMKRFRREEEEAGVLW

[13] = reduction of Shn3 3'UTR-driven luciferase in osteoblasts – cell-based, Clone20 osteoblasts, firefly luciferase, cherry-picked, dose response (AID 624132); type: functional;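 also: firefly luciferase luminescence from reporter carrying the Shn3 3'UTR in osteoblasts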
[14] = loss of viability in HepG2 cells – cell-based, CellTiter-Glo, cherry-picked, cytotoxicity control for Shn3 inhibitor project, dose response (AID 624134); type: functional
[15] = non-specific 3'UTR reporter inhibition in Clone20-Shn3RL – cell-based, Renilla luciferase, cherry-picked, counter-screen for Shn3 inhibitor project, dose response (AID 624133); type: functional
Fatty acid synthase [16] = molecular target: T7, Fatty acid synthase (Homo sapiens, UniProt P49327); experiment: inhibition of human FAS-TE enzyme activity – biochemical, endpoint fluorescence intensity, uHTS hits, dose response (AID 624327); type: functional;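 also: fluorescence from hydrolysis of an O-methyl fluorescein acyl ester substrate by the enzyme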
T7 sequence (P49327 whole entry): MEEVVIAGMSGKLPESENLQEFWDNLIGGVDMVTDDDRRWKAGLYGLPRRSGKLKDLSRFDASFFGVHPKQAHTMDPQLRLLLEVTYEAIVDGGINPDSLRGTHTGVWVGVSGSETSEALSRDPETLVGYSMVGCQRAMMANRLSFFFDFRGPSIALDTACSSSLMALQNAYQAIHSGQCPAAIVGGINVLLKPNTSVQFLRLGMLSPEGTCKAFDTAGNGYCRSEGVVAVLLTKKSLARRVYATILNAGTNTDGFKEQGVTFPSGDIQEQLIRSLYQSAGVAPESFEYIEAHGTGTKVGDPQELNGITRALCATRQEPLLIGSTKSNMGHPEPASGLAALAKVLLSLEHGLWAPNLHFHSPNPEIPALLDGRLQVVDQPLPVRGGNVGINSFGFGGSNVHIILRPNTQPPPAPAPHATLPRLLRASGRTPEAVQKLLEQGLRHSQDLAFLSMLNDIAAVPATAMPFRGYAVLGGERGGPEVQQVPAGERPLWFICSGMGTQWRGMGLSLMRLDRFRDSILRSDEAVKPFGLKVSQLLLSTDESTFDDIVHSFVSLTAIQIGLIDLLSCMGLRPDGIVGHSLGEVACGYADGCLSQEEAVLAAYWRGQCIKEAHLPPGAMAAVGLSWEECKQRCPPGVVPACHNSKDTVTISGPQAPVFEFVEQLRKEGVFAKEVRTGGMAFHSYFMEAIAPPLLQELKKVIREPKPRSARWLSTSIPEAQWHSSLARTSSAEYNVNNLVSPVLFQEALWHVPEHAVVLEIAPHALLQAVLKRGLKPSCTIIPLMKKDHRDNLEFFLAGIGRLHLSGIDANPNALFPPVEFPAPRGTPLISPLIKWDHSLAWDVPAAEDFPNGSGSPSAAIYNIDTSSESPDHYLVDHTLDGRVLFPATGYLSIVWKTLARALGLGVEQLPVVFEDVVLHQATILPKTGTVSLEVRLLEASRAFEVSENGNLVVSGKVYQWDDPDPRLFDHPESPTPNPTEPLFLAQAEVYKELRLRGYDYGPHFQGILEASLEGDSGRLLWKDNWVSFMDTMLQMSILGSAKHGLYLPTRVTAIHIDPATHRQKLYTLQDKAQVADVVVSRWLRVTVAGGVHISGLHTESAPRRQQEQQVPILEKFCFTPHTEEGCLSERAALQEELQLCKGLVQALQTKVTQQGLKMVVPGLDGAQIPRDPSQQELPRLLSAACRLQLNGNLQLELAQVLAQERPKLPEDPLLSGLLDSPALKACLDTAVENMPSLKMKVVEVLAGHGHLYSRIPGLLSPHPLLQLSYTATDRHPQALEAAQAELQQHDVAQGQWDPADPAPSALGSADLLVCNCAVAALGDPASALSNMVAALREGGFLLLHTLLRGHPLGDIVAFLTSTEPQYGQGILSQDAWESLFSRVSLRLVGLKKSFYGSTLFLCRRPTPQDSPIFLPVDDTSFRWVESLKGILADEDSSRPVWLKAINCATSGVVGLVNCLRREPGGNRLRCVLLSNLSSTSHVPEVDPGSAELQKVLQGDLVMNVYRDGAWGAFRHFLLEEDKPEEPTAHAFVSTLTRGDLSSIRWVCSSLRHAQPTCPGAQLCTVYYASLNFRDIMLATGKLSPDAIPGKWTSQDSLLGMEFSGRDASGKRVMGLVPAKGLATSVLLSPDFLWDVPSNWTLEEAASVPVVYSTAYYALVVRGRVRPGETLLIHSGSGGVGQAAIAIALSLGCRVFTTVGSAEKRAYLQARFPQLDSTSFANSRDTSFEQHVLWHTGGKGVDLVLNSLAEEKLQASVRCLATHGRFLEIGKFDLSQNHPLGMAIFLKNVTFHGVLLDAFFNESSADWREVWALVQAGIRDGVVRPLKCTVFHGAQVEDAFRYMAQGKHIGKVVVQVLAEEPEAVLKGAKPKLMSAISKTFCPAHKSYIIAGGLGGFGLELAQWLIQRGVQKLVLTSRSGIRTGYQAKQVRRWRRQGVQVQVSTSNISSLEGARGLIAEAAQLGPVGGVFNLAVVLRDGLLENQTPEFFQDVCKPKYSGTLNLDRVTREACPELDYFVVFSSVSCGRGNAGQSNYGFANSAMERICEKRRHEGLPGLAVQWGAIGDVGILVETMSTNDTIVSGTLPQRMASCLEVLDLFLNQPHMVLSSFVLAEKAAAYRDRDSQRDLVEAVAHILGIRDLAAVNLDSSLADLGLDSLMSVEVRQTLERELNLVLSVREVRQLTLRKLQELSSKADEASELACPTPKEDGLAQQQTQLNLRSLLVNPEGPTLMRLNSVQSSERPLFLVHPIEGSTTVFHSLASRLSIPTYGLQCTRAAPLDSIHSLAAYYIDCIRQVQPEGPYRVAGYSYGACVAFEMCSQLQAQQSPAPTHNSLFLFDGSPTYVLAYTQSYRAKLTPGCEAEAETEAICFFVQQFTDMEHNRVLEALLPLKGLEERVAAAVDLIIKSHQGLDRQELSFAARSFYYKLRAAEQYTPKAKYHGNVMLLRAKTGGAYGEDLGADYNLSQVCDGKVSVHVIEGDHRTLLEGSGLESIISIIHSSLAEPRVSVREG

Fatty acid synthase [17] = molecular target: T7, Fatty acid synthase; experiment: inhibition of human FAS-TE enzyme activity – biochemical, kinetic fluorescence intensity, dose response (AID 624326); type: functional;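 also: rate of fluorescence rise from hydrolysis of a fluorogenic O-methyl fluorescein ester substrate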
Paired box protein Pax-8 = Paired box protein Pax-8 (Homo sapiens, UniProt Q06710); experiment: PAX8 transcriptional activity inhibition in RMG-I – RMG-I cells, luciferase, cherry-pick, dose response (AID 687027); type: functional, cell-based;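 also: luciferase reporter driven by Pax8 target thyroperoxidase promoter measured by SteadyGlo luminescence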
Paired box protein Pax-8, sequence (Q06710 whole entry): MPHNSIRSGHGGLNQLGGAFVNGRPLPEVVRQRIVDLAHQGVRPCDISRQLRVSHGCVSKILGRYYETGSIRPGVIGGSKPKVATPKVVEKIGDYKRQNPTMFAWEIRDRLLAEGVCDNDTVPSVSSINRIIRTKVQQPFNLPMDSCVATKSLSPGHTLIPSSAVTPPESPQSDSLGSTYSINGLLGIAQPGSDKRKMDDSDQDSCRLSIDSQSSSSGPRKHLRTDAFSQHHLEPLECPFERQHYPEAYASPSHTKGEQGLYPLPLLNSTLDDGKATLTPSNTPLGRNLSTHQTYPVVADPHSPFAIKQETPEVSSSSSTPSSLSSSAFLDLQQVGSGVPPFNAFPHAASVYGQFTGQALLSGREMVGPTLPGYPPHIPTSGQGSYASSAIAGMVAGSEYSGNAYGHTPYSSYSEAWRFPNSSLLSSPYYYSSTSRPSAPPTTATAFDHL

[18] = general cell-killing toxicity readout – plate reader, dry powder samples, cytotoxicity control for PAX8 inhibitor project, dose response (AID 743021); type: functional, cell-based
H9c2 = experiment: cells; type: functional, cell-based; conditions: Rattus norvegicus, H9c2, Myocardium;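 also: confirmatory concentration-response retest of ultra-high-throughput screening hits for modulation of myocardial damage; cell death induced by hydrogen peroxide oxidative stress; compound pretreatment for 60 min then peroxide exposure for 2 h; potency is for protecting the cells against peroxide damage rather than for killing them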

CCCCOC(=O)Nc1ccc2c(C)cc(=O)oc2c1
IC50 (Caspase-3): 7.45 µM (active)
IC50 [1]: 4.58 µM (active)
IC50 [2]: 8.26 µM (active)
IC50 [3]: 12.7 µM (active)

O=[N+]([O-])c1c(Nc2cccc(O)c2)cc(Cl)c2nonc12
EC50 [4]: 7.24 µM (active)
EC50 (BJ [5]): 2.6 µM (active)
EC50 (Streptokinase A): 5.58 µM (active)
EC50 (BJ [6]): 5.62 µM (inconclusive)
IC50 (Large T antigen): 47.8 µM (active)
EC50 [7]: > 112 µM (not active)
EC50 [8]: 4.14 µM (active)
EC50 (BJ [9]): 4.25 µM (inconclusive)
EC50 [10]: 5.13 µM (active)
EC50 (Streptococcus): 10.5 µM (active)
AC50 (HEK293): 3.64 µM (active)
IC50 [11]: 10.5 µM (active)
CC50 (Vero): 33.7 µM (active)
EC50 (BJ [12]): 0.585 µM (active)
IC50 (Genome polyprotein): 26.2 µM (active)
AC50 [13]: 0.683 µM (active)
AC50 [14]: 12.5 µM (active)
AC50 [15]: 5.66 µM (active)
IC50 (Fatty acid synthase [16]): 5.29 µM (active)
IC50 (Fatty acid synthase [17]): 3.24 µM (active)
AC50 (Paired box protein Pax-8): 7.24 µM (active)
AC50 [18]: 22.6 µM (active)

Oc1ccc2oc3c(c2c1/C=N/Cc1ccncc1)CCCC3
CC50 (Vero): > 40 µM (active)
IC50 (H9c2): > 79 µM (inactive)

CC(NC(=O)CNC(=O)OCc1ccccc1)C(=O)N1CC(O)CC1C(=O)OCc1ccccc1 (stereo not drawn) (Cbz-Gly-Ala-[Hyp]-OBn; configuration not given here)
AC50 (HEK293): 273 µM (active)
